Reference: PMC7465040, “Cytotoxic and Anti-Plasmodial Activities of Stephania dielsiana Y.C. Wu Extracts and the Isolated Compounds” (Molecules, 2020)
Where two headings read alike, the source gives them in different places.

Legend:
[1] = system: 184B5; experiment: SRB cell proliferation assay, 184B5 non-cancer cells; assay type: cell-based, human; details: Homo sapiens, 184B5, read-out: IC50 (μM ± SD) 184B5
Procedure: (§1) In vitro anticancer study: The in vitro anti-proliferative tests were carried out as described previously, using aliquots of the cell lines used therein. Briefly, HeLa, MDA-MB-231 and MDA-MB-468, MCF7, and 184B5 and MCF 10A cell lines were purchased from ATCC. The identity of the cell lines presented in this study were verified by short tandem repeat profiling by Genetica DNA Laboratories (www.celllineauthentication.com) (April 8, 2015). MCF10A was grown in DMEM F12 medium supplemented with 0.02 μg/mL epidermal growth factor, 10% FBS, 10 μg/mL insulin and […] hydrocortisone. MDA-MB-468 were grown in DMEM supplemented with 10% FBS and antibiotics cocktail (100 μg/mL streptomycin, 100 units/mL penicillin and 250 ng/mL amphotericin B). SRB cell proliferation assays were carried out as previously described, with some minor modifications. The concentration range for all tested cell lines were from 100–0.39 μg/mL for extracts and 100–0.39 μM for pure compounds. […] All experiments were carried out at least twice.

[2] = system: chloroquine-resistant W2 P. falciparum strain; experiment: In vitro anti-plasmodial assay (HRP2 ELISA), W2; assay type: cell-based, Plasmodium falciparum; details: for IC50: 72 h, HRP2 ELISA, mean of five experiments, read-out: IC50 (μM ± SD) W2; for SI W2 184B5 / SI W2 MCF10A: Table 3; for SI W2 184B5: selectivity index between 184B5 and parasites W2; for SI W2 MCF10A: selectivity index between MCF10A and parasites W2
Procedure: (§2) Parasites were grown in A-positive human blood (Etablissement Français du Sang, Marseille, France) under controlled atmospheric conditions that consisted of 10% O2, 5% CO2, and 85% N2 at 37 °C with a humidity of 95%.
(§3) In vitro anti-plasmodial assay: The two P. falciparum strains 3D7 and W2 were synchronized twice with sorbitol before use. The clonality of these strains was verified both in our laboratory and in an independent laboratory from the Worldwide Anti-malarial Resistance Network (WWARN) by PCR genotyping of the polymorphic genetic markers msp1 and msp2 and microsatellite loci. The compounds were re-suspended in methanol or DMSO 5% (v/v) and then diluted in methanol to obtain final concentrations ranging from 0.008 to 500 μg/mL (final concentration of 0.5% of methanol or DMSO). […] The plates were incubated for 72 h at 37 °C in controlled atmospheric conditions 5% CO2, 10% O2, and […]. After thawing the plates, haemolysed cultures were homogenized by vortexing the plates. Both the success of the drug susceptibility assay and the appropriate volume of haemolysed culture to use for each assay were determined for each clinical isolate during a preliminary HRP2 ELISA. Both the pre-test and subsequent ELISA assays were performed using a commercial kit (Malaria Ag Celisa, ref KM2159, Cellabs PTY LTD, Brookvale, Australia) according to the manufacturer’s recommendation. The optical density (OD) of each sample was measured with a spectrophotometer (Safire 2, Tecan, Lyon, France). […] The anti-plasmodial in vitro assay was performed five times for each product. The IC50 values represented the mean value calculated from five experiments. According to Hout, a selectivity index (SI) was based on the ratio between anti-parasitic and cytotoxic activities. In the case of our study, a SI was calculated between non-tumorigenic cell line 184B5 and parasites 3D7 or W2 and/or MCF10A and these two parasites.

[3] = system: chloroquine-susceptible 3D7 P. falciparum strain; experiment: In vitro anti-plasmodial assay (HRP2 ELISA), 3D7; assay type: cell-based, Plasmodium falciparum; details: for IC50: 72 h, HRP2 ELISA, mean of five experiments, read-out: IC50 (μM ± SD) 3D7; for SI 3D7 184B5 / SI 3D7 MCF10A: Table 3; for SI 3D7 184B5: selectivity index between 184B5 and parasites 3D7; for SI 3D7 MCF10A: selectivity index between MCF10A and parasites 3D7
Procedure: as §2, §3

[4] = system: HeLa, MDA-MB231, MDA-MB-468, MCF7, 184B5 and MCF10A cell lines; experiment: SRB cell proliferation assay, whole panel of cell lines; assay type: cell-based, human
Procedure: as §1

[5] = system: MCF7; experiment: SRB cell proliferation assay, MCF7; assay type: cell-based, human; details: for IC50: Homo sapiens, MCF7, Table 2A, SRB, 72 h, read-out: IC50 (μM ± SD) MCF7
Procedure: as §1

[6] = system: MDA-MB-231; experiment: SRB cell proliferation assay, MDA-MB-231; assay type: cell-based, human; details: for IC50: Homo sapiens, MDA-MB-231, Table 2A, SRB, 72 h, read-out: IC50 (μM ± SD) MDA-MB-231
Procedure: as §1

[7] = system: Plasmodium falciparum 3D7 and W2 strains; experiment: In vitro anti-plasmodial assay, both strains; assay type: cell-based
Procedure: as §2, §3

[8] = system: MDA-MB-468; experiment: SRB cell proliferation assay, MDA-MB-468; assay type: cell-based, human; details: for IC50: Homo sapiens, MDA-MB-468, Table 2A, SRB, 72 h, read-out: IC50 (μM ± SD) MDA-MB-468
Procedure: as §1

[9] = system: MCF 10A; experiment: SRB cell proliferation assay, MCF10A non-cancer cells; assay type: cell-based; details: Homo sapiens, read-out: IC50 (μM ± SD) MCF 10A
Procedure: as §1

[10] = system: HeLa; experiment: SRB cell proliferation assay, HeLa; assay type: cell-based, human; details: for IC50: Homo sapiens, HeLa, 72 h, Table 2A, SRB, read-out: IC50 (μM ± SD) HeLa
Procedure: as §1

[11] = Plasmodium falciparum, W2, 72 h

Compound	IC50 ([1]; Table 2A, SRB, 72 h)	IC50 ([1]; Table 3, non-cancer cell line)	IC50 [2]	IC50 [2, 11]	SI W2 184B5 [2]	SI W2 MCF10A [2]	IC50 [3]	SI 3D7 184B5 [3]	SI 3D7 MCF10A [3]	IC50 [5]	IC50 [6]	Anti-plasmodial activity against both 3D7 and W2 (in words) [7]	IC50 [8]	IC50 ([9]; Table 2A, SRB, 72 h)	IC50 ([9]; Table 3, non-cancer cell line)	IC50 [10]	further results
COc1cc2c(cc1OC)[C@@H]1Cc3ccc(OC)c(OC)c3CN1CC2 [Tetrahydropalmatine 7, tetrahydropalmatine]	> 50 µM	> 50 µM	226 ± 19.8 µM	216 to 226 µM	>0.22	>0.22	276 ± 14.4 µM	>0.18	>0.18	> 50 µM	> 50 µM	not active	> 50 µM	> 50 µM	> 50 µM	> 50 µM	Anti-proliferative activity (in words) [4]: did not show any effect
COc1cccc2c1C(=O)c1c3c-2c2c(cc3cc[n+]1C)OCO2 [Thailandine 2, thailandine]	3.02 ± 0.1 µM	3.02 ± 0.1 µM	0.22 ± 0.02 µM	0.24 µM	13.73	22.77	0.24 ± 0.04 µM	12.58	20.86	1.99 ± 1.36 µM	7.11 ± 0.07 µM	strong activity	0.78 ± 0.12 µM	5.01 ± 0.15 µM	5.01 ± 0.15 µM	4.1 ± 0.4 µM	SI against P. falciparum (W2 vs. MCF10A) [2]: 22.8 fold; SI against P. falciparum (3D7 vs. 184B5) [3]: 12.6 fold; IC50 ([3]; Plasmodium falciparum, 3D7, 72 h): 0.22 µM; IC50 ([4]; Homo sapiens, cancer and non-cancer cell lines, read-out: IC50 values, range over the cell lines examined): 0.78 to 7.11 µM; Selectivity index (SI) 184B5 versus MCF7 ([5]; Table 2B, non-cancer 184B5 vs cancer MCF7): 1.50; Selectivity index (SI) MCF10A versus MCF7 ([5]; Table 2B, non-cancer MCF10A vs cancer MCF7): 2.50; Selectivity index (SI) 184B5 versus MDA-MB-231 ([6]; Table 2B, non-cancer 184B5 vs cancer MDA-MB-231): 0.42; Selectivity index (SI) MCF10A versus MDA-MB-231 ([6]; Table 2B, non-cancer MCF10A vs cancer MDA-MB-231): 0.70; Selectivity index (SI) between cells and parasites ([7]; 184B5, MCF10A vs 3D7, W2): > 12; Selectivity index (SI) 184B5 versus MDA-MB-468 ([8]; Table 2B, non-cancer 184B5 vs cancer MDA-MB-468): 3.90; Selectivity index (SI) MCF10A versus MDA-MB-468 ([8]; Table 2B, non-cancer MCF10A vs cancer MDA-MB-468): 6.40; Selectivity index (SI) 184B5 versus HeLa ([10]; Table 2B, non-cancer 184B5 vs cancer HeLa): 0.73; Selectivity index (SI) MCF10A versus HeLa ([10]; Table 2B, non-cancer MCF10A vs cancer HeLa): 1.20
